ChEMBL document CHEMBL1135542, “Successful virtual screening for novel inhibitors of human carbonic anhydrase: strategy and experimental confirmation” (J Med Chem, 2002)

How the values were obtained:
Carbonic anhydrase 2 [1] = molecular target: T1, Carbonic anhydrase 2 (Homo sapiens, UniProt P00918)
Carbonic anhydrase 2 [2] = molecular target: T1, Carbonic anhydrase 2; remark: listed apart in the source
Carbonic anhydrase 2 [3] = molecular target: T1, Carbonic anhydrase 2; remark: listed apart in the source

SMILES	Ki (Carbonic anhydrase 2 [1])	IC50 (Carbonic anhydrase 2 [2])	Kd (Carbonic anhydrase 2 [3])
NS(=O)(=O)c1cc2cc(N3CCOCC3)sc2s1	1.1 nM	3 nM	–
NC(=O)NCCOCCOCCNC(=O)c1ccc(S(N)(=O)=O)cc1	–	–	43 nM
CC(C)(C)C(=O)Oc1ccc2sc(S(N)(=O)=O)cc2c1	–	2.6 nM	–
N[C@@H](Cc1ccccc1)C(=O)NCCOCCOCCNC(=O)c1ccc(S(N)(=O)=O)cc1 [PHENYLALANYLAMINODI(ETHYLOXY)ETHYL BENZENESULFONAMIDEAMINOCARBONYLBENZENESULFONAMIDE]	–	–	14 nM
CC1(C)O[C@H]2[C@@H]3OS(=O)(=O)O[C@@H]3CC[C@@]2(COS(N)(=O)=O)O1	–	130 nM	–
CN(C)c1cccc2c(S(N)(=O)=O)cccc12	–	–	93000 nM
COCCOCCN(CCOC)c1cc2cc(S(N)(=O)=O)sc2s1	1.58 nM	2.8 nM	–
CCCCCCCCCS(=O)(=O)C(F)S(N)(=O)=O (configuration not stated)	–	3 nM	–
CN(C)Cc1cc(S(=O)(=O)c2ccc(S(N)(=O)=O)s2)ccc1O	–	0.7 nM	–
NS(=O)(=O)OCCOc1ccc(-n2ccnc2)cc1	7 nM	–	–
CN(C)S(=O)(=O)Oc1ccc2nc(S(N)(=O)=O)sc2c1	–	1.2 nM	–
NS(=O)(=O)c1cc2cc(N3CCSCC3)sc2s1	0.44 nM	2.6 nM	–
CCN[C@H]1CN(CCCCOC)S(=O)(=O)c2sc(S(N)(=O)=O)cc21	–	3.2 nM	0.13 nM
